Measured values taken from the NIST ThermoML archive (doi:10.1021/je500498m).
Several values for one entry are separate records, joined by “and”; a condition that tells them apart may be missing. Equal entries are not always repeated. ± gives the expanded uncertainty stated by the source.

Key:
[1] = for speed of sound: 100 kPa, Sing-around technique in a fixed-path interferometer; for speed of sound / viscosity / mass density: Liquid; for viscosity / mass density: 101 kPa; for viscosity: Falling or rolling sphere viscometry; for mass density: Vibrating tube method; for surface tension liquid-gas: 294.4 K, Pendant drop shape
[2] = xn = mol fraction of the nth substance listed; settings: x1 = 1; for speed of sound: 100 kPa, Sing-around technique in a fixed-path interferometer; for speed of sound / viscosity / mass density: Liquid; for viscosity / mass density: 101 kPa; for viscosity: Falling or rolling sphere viscometry; for mass density: Vibrating tube method; for surface tension liquid-gas: 294.4 K, Pendant drop shape

SMILES: CCc1ccccc1 [ethylbenzene]
- speed of sound ([1]; 293.15 K): 1339.7 ± 0.7 m/s
- viscosity ([1]; 293.15 K): 0.67 ± 0.01 mPa·s
- mass density ([1]; 293.15 K): 866.95 ± 0.31 kg/m3
- surface tension liquid-gas [1]: 29.2 ± 0.4 mN/m
- speed of sound ([1]; 303.15 K): 1298.1 ± 0.7 m/s
- viscosity ([1]; 303.15 K): 0.59 ± 0.01 mPa·s
- mass density ([1]; 303.15 K): 858.15 ± 0.31 kg/m3
- speed of sound ([1]; 313.15 K): 1256.9 ± 0.7 m/s
- mass density ([1]; 313.15 K): 849.29 ± 0.31 kg/m3
- speed of sound ([1]; 323.15 K): 1216.4 ± 0.7 m/s
- viscosity ([1]; 323.15 K): 0.48 ± 0.01 mPa·s
- mass density ([1]; 323.15 K): 840.38 ± 0.31 kg/m3
- speed of sound ([1]; 333.15 K): 1176.4 ± 0.7 m/s
- viscosity ([1]; 333.15 K): 0.44 ± 0.01 mPa·s
- mass density ([1]; 333.15 K): 831.4 ± 0.32 kg/m3
- viscosity ([1]; 343.15 K): 0.4 ± 0.01 mPa·s
- mass density ([1]; 343.15 K): 822.3 ± 0.3 kg/m3
- viscosity ([1]; 353.15 K): 0.36 ± 0.01 mPa·s
- mass density ([1]; 353.15 K): 813.1 ± 0.3 kg/m3
- viscosity ([1]; 363.15 K): 0.33 ± 0.01 mPa·s
- mass density ([1]; 363.15 K): 803.7 ± 0.3 kg/m3
- viscosity ([1]; 373.15 K): 0.31 ± 0.01 mPa·s
- mass density ([1]; 373.15 K): 794.2 ± 0.3 kg/m3

SMILES: CCc1ccccc1 [ethylbenzene] + CCCCCCCCCCCCCCCC
- speed of sound ([2]; 293.15 K): 1339.7 ± 0.7 m/s
- viscosity ([2]; 293.15 K): 0.67 ± 0.01 mPa·s
- mass density ([2]; 293.15 K): 866.95 ± 0.31 kg/m3
- surface tension liquid-gas [2]: 29.2 ± 0.4 mN/m
- speed of sound ([2]; 303.15 K): 1298.1 ± 0.7 m/s
- viscosity ([2]; 303.15 K): 0.59 ± 0.01 mPa·s
- mass density ([2]; 303.15 K): 858.15 ± 0.31 kg/m3
- speed of sound ([2]; 313.15 K): 1256.9 ± 0.7 m/s
- mass density ([2]; 313.15 K): 849.29 ± 0.31 kg/m3
- speed of sound ([2]; 323.15 K): 1216.4 ± 0.7 m/s
- viscosity ([2]; 323.15 K): 0.48 ± 0.01 mPa·s
- mass density ([2]; 323.15 K): 840.38 ± 0.31 kg/m3
- speed of sound ([2]; 333.15 K): 1176.4 ± 0.7 m/s
- viscosity ([2]; 333.15 K): 0.44 ± 0.01 mPa·s
- mass density ([2]; 333.15 K): 831.4 ± 0.32 kg/m3
- viscosity ([2]; 343.15 K): 0.4 ± 0.01 mPa·s
- mass density ([2]; 343.15 K): 822.3 ± 0.3 kg/m3
- viscosity ([2]; 353.15 K): 0.36 ± 0.01 mPa·s
- mass density ([2]; 353.15 K): 813.1 ± 0.3 kg/m3
- viscosity ([2]; 363.15 K): 0.33 ± 0.01 mPa·s
- mass density ([2]; 363.15 K): 803.7 ± 0.3 kg/m3
- viscosity ([2]; 373.15 K): 0.31 ± 0.01 mPa·s
- mass density ([2]; 373.15 K): 794.2 ± 0.3 kg/m3

SMILES: CCCCCCCCCCCCCCCC [hexadecane]
- speed of sound ([1]; 293.15 K): 1357.3 ± 0.9 m/s
- viscosity ([1]; 293.15 K): 3.44 ± 0.03 mPa·s
- mass density ([1]; 293.15 K): 773.49 ± 0.33 kg/m3
- surface tension liquid-gas [1]: 27.3 ± 0.4 mN/m
- speed of sound ([1]; 303.15 K): 1320 ± 0.9 m/s
- viscosity ([1]; 303.15 K): 2.72 ± 0.02 mPa·s
- mass density ([1]; 303.15 K): 766.55 ± 0.34 kg/m3
- speed of sound ([1]; 313.15 K): 1283.3 ± 0.9 m/s
- mass density ([1]; 313.15 K): 759.63 ± 0.34 kg/m3
- speed of sound ([1]; 323.15 K): 1247.3 ± 0.9 m/s
- viscosity ([1]; 323.15 K): 1.82 ± 0.02 mPa·s
- mass density ([1]; 323.15 K): 752.71 ± 0.34 kg/m3
- speed of sound ([1]; 333.15 K): 1212 ± 0.9 m/s
- viscosity ([1]; 333.15 K): 1.54 ± 0.02 mPa·s and 1.53 ± 0.02 mPa·s
- mass density ([1]; 333.15 K): 745.79 ± 0.34 kg/m3
- viscosity ([1]; 343.15 K): 1.31 ± 0.02 mPa·s
- mass density ([1]; 343.15 K): 738.9 ± 0.3 kg/m3
- viscosity ([1]; 353.15 K): 1.13 ± 0.01 mPa·s
- mass density ([1]; 353.15 K): 731.8 ± 0.3 kg/m3
- viscosity ([1]; 363.15 K): 0.99 ± 0.01 mPa·s
- mass density ([1]; 363.15 K): 724.7 ± 0.3 kg/m3
- viscosity ([1]; 373.15 K): 0.87 ± 0.01 mPa·s
- mass density ([1]; 373.15 K): 717.5 ± 0.3 kg/m3

SMILES: Cc1ccccc1 [toluene]
- speed of sound ([1]; 293.15 K): 1326.8 ± 0.8 m/s
- viscosity ([1]; 293.15 K): 0.59 ± 0.01 mPa·s
- mass density ([1]; 293.15 K): 866.84 ± 0.31 kg/m3
- surface tension liquid-gas [1]: 28.4 ± 0.4 mN/m
- speed of sound ([1]; 303.15 K): 1283.7 ± 0.7 m/s
- viscosity ([1]; 303.15 K): 0.52 ± 0.01 mPa·s
- mass density ([1]; 303.15 K): 857.53 ± 0.31 kg/m3
- speed of sound ([1]; 313.15 K): 1241.1 ± 0.7 m/s
- mass density ([1]; 313.15 K): 848.14 ± 0.32 kg/m3
- speed of sound ([1]; 323.15 K): 1199 ± 0.7 m/s
- viscosity ([1]; 323.15 K): 0.42 ± 0.01 mPa·s
- mass density ([1]; 323.15 K): 838.7 ± 0.32 kg/m3
- speed of sound ([1]; 333.15 K): 1157.6 ± 0.7 m/s
- viscosity ([1]; 333.15 K): 0.38 ± 0.01 mPa·s
- mass density ([1]; 333.15 K): 829.16 ± 0.32 kg/m3
- viscosity ([1]; 343.15 K): 0.35 ± 0.01 mPa·s
- mass density ([1]; 343.15 K): 819.6 ± 0.3 kg/m3
- viscosity ([1]; 353.15 K): 0.32 ± 0.01 mPa·s
- mass density ([1]; 353.15 K): 809.7 ± 0.3 kg/m3
- viscosity ([1]; 363.15 K): 0.27 ± 0.01 mPa·s
- mass density ([1]; 363.15 K): 799.7 ± 0.3 kg/m3

SMILES: Cc1ccccc1 [toluene] + CCCCCCCCCCCCCCCC
- speed of sound ([2]; 293.15 K): 1326.8 ± 0.8 m/s
- viscosity ([2]; 293.15 K): 0.59 ± 0.01 mPa·s
- mass density ([2]; 293.15 K): 866.84 ± 0.31 kg/m3
- surface tension liquid-gas [2]: 28.4 ± 0.4 mN/m
- speed of sound ([2]; 303.15 K): 1283.7 ± 0.7 m/s
- viscosity ([2]; 303.15 K): 0.52 ± 0.01 mPa·s
- mass density ([2]; 303.15 K): 857.53 ± 0.31 kg/m3
- speed of sound ([2]; 313.15 K): 1241.1 ± 0.7 m/s
- mass density ([2]; 313.15 K): 848.14 ± 0.32 kg/m3
- speed of sound ([2]; 323.15 K): 1199 ± 0.7 m/s
- viscosity ([2]; 323.15 K): 0.42 ± 0.01 mPa·s
- mass density ([2]; 323.15 K): 838.7 ± 0.32 kg/m3
- speed of sound ([2]; 333.15 K): 1157.6 ± 0.7 m/s
- viscosity ([2]; 333.15 K): 0.38 ± 0.01 mPa·s
- mass density ([2]; 333.15 K): 829.16 ± 0.32 kg/m3
- viscosity ([2]; 343.15 K): 0.35 ± 0.01 mPa·s
- mass density ([2]; 343.15 K): 819.6 ± 0.3 kg/m3
- viscosity ([2]; 353.15 K): 0.32 ± 0.01 mPa·s
- mass density ([2]; 353.15 K): 809.7 ± 0.3 kg/m3
- viscosity ([2]; 363.15 K): 0.27 ± 0.01 mPa·s
- mass density ([2]; 363.15 K): 799.7 ± 0.3 kg/m3
